Reference: paper PMC7265341, “Quantifying CDK inhibitor selectivity in live cells” (Nature Communications, 2020)
Read-outs that look alike come from different tables or passages of the source.

What was measured:
CDK1/Cyclin E1 = CDK1/Cyclin E1 (Homo sapiens, UniProt P06493); test: NanoBRET live-cell target engagement, CDK1-NanoLuc/Cyclin E1 in HEK-293; type: binding; conditions: CDK1/E1, 10µM
CDK4/Cyclin D1 = CDK4/Cyclin D1 (Homo sapiens, UniProt P11802); test: NanoBRET live-cell target engagement, NanoLuc-CDK4/Cyclin D1 in HEK-293; type: binding; conditions: CDK4/D1, 10µM
CDK5/CDK5R1 = CDK5/CDK5R1 (Homo sapiens, UniProt Q00535); test: NanoBRET live-cell target engagement, CDK5-NanoLuc/CDK5R1 in HEK-293; type: binding; conditions: CDK5/CDK5R1, 10µM
CDK6/Cyclin D1 = CDK6/Cyclin D1 (Homo sapiens, UniProt Q00534); test: NanoBRET live-cell target engagement, NanoLuc-CDK6/Cyclin D1 in HEK-293; type: binding; conditions: CDK6/D1, 10µM
CDK7 = CDK7 (Homo sapiens, UniProt P50613); test: NanoBRET live-cell target engagement, NanoLuc-CDK7 in HEK-293; type: binding; conditions: CDK7, 10µM
CDK8/Cyclin C = CDK8/Cyclin C (Homo sapiens, UniProt P49336); test: NanoBRET live-cell target engagement, NanoLuc-CDK8/Cyclin C in HEK-293; type: binding; conditions: CDK8/C
CDK11A/Cyclin L2 = biological target: T1, CDK11A/Cyclin L2 (Homo sapiens, UniProt Q9UQ88); test: NanoBRET live-cell target engagement, CDK11A-NanoLuc/Cyclin L2 in HEK-293; type: binding; conditions: CDK11a/L2, 10µM
T1 sequence (Q9UQ88 1-783): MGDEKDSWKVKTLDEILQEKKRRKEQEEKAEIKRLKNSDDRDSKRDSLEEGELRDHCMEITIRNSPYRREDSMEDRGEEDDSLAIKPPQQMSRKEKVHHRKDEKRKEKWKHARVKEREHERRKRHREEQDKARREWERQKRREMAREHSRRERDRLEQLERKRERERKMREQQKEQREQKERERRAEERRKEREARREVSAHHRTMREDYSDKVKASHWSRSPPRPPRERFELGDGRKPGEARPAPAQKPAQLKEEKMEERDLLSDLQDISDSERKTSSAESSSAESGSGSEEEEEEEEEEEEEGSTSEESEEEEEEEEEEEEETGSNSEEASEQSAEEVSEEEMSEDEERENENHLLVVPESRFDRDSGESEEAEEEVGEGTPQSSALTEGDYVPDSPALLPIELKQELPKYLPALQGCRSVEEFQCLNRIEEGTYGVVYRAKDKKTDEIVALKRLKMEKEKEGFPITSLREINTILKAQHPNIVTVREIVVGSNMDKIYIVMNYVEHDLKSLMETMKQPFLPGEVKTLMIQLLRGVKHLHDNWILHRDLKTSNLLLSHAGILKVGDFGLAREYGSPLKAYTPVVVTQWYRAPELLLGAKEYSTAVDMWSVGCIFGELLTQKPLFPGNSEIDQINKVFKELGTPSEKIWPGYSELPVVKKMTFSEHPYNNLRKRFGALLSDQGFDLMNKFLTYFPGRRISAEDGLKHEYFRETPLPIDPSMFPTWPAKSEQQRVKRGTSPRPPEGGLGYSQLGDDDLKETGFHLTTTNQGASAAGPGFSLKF

CDK11B/Cyclin L2 = CDK11B/Cyclin L2 (Homo sapiens, UniProt P21127); test: NanoBRET live-cell target engagement, CDK11B-NanoLuc/Cyclin L2 in HEK-293; type: binding; conditions: CDK11b/L2, 10µM
CDK12/Cyclin K = CDK12/Cyclin K (Homo sapiens, UniProt Q9NYV4); test: NanoBRET live-cell target engagement, CDK12-NanoLuc/Cyclin K in HEK-293; type: binding; conditions: CDK12/K, 10µM
CDK13/Cyclin K = CDK13/Cyclin K (Homo sapiens, UniProt Q14004); test: NanoBRET live-cell target engagement, CDK13-NanoLuc/Cyclin K in HEK-293; type: binding; conditions: CDK13/K, 10µM
CDK15/Cyclin Y = CDK15/Cyclin Y (Homo sapiens, UniProt Q96Q40); test: NanoBRET live-cell target engagement, NanoLuc-CDK15/Cyclin Y in HEK-293; type: binding; conditions: CDK15/Y, 10µM
CDK16/Cyclin Y = CDK16/Cyclin Y (Homo sapiens, UniProt Q00536); test: NanoBRET live-cell target engagement, CDK16-NanoLuc/Cyclin Y in HEK-293; type: binding; conditions: CDK16/Y, 10µM
CDK17/Cyclin Y = CDK17/Cyclin Y (Homo sapiens, UniProt Q00537); test: NanoBRET live-cell target engagement, CDK17-NanoLuc/Cyclin Y in HEK-293; type: binding; conditions: CDK17/Y, 10µM
CDK18/Cyclin Y = CDK18/Cyclin Y (Homo sapiens, UniProt Q07002); test: NanoBRET live-cell target engagement, CDK18-NanoLuc/Cyclin Y in HEK-293; type: binding; conditions: CDK18/Y
CDK20/Cyclin H = CDK20/Cyclin H (Homo sapiens, UniProt Q8IZL9); test: NanoBRET live-cell target engagement, NanoLuc-CDK20/Cyclin H in HEK-293; type: binding; conditions: CDK20/H, 10µM
CDK19/Cyclin C = CDK19/Cyclin C (Homo sapiens, UniProt Q9BWU1); test: NanoBRET live-cell target engagement, NanoLuc-CDK19/Cyclin C in HEK-293
[1] = average of replicates, read-out: Inhibition at 10µM (%) Average
[2] = read-out: Inhibition at 10µM (%) Replicate 1
[3] = read-out: Inhibition at 10µM (%) Replicate 2
[4] = n=3 average ± SEM, n=2 average to 2 significant figures, read-out: IC50 (nM) Average*
[5] = read-out: IC50 (nM) Replicate 1
[6] = read-out: IC50 (nM) Replicate 2

CDK17/Cyclin Y, sequence (Q00537 whole entry): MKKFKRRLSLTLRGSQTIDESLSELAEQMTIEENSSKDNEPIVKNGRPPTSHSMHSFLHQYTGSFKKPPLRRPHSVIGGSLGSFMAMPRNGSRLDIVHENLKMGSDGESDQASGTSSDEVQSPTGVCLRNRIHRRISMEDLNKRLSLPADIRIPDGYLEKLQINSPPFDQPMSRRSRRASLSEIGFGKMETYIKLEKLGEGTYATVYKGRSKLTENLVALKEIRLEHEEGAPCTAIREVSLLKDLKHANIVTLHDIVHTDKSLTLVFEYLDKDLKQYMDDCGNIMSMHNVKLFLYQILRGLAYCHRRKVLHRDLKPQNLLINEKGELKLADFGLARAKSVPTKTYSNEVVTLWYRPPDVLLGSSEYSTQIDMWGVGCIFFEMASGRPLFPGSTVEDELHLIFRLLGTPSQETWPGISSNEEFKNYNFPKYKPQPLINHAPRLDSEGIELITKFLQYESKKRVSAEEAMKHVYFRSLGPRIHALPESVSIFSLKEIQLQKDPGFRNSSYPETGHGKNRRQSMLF
CDK17/Cyclin Y, sequence (Q8ND76 whole entry partner): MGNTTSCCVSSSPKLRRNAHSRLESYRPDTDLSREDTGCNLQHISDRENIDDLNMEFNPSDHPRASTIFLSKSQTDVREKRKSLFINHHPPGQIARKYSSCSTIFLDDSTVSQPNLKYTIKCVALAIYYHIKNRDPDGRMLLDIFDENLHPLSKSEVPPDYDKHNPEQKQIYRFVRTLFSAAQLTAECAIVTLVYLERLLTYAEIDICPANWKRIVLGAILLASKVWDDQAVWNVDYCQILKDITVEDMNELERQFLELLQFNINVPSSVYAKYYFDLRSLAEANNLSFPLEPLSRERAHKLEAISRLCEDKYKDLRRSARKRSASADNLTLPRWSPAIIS
CDK7, sequence (P50613 whole entry): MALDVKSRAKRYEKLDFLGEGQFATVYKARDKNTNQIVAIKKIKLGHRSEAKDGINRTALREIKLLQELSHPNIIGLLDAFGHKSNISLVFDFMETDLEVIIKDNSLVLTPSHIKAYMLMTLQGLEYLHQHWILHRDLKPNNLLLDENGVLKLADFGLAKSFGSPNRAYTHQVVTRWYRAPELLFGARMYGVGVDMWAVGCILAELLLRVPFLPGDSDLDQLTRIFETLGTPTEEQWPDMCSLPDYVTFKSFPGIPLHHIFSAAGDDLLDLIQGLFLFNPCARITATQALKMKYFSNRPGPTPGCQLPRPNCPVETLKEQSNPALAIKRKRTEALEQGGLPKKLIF
CDK6/Cyclin D1, sequence (Q00534 whole entry): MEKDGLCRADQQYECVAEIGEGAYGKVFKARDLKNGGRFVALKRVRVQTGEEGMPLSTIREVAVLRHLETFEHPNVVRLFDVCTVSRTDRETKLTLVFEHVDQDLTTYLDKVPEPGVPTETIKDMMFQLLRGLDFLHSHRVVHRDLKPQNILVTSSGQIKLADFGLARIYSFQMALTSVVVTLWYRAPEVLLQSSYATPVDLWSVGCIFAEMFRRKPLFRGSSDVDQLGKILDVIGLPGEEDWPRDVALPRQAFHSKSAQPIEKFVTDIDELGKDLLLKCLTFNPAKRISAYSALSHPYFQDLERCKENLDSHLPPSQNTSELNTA
CDK6/Cyclin D1, sequence (P24385 whole entry partner): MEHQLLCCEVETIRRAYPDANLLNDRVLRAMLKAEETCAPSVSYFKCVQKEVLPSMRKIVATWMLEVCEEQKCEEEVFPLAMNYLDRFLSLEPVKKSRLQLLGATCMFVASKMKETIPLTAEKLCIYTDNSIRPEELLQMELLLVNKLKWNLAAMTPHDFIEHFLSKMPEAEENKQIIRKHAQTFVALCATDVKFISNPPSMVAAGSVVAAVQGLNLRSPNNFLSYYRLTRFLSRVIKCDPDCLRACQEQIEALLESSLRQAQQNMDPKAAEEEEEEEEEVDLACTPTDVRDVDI
CDK12/Cyclin K, sequence (Q9NYV4 1-1481 isoform Q9NYV4-2): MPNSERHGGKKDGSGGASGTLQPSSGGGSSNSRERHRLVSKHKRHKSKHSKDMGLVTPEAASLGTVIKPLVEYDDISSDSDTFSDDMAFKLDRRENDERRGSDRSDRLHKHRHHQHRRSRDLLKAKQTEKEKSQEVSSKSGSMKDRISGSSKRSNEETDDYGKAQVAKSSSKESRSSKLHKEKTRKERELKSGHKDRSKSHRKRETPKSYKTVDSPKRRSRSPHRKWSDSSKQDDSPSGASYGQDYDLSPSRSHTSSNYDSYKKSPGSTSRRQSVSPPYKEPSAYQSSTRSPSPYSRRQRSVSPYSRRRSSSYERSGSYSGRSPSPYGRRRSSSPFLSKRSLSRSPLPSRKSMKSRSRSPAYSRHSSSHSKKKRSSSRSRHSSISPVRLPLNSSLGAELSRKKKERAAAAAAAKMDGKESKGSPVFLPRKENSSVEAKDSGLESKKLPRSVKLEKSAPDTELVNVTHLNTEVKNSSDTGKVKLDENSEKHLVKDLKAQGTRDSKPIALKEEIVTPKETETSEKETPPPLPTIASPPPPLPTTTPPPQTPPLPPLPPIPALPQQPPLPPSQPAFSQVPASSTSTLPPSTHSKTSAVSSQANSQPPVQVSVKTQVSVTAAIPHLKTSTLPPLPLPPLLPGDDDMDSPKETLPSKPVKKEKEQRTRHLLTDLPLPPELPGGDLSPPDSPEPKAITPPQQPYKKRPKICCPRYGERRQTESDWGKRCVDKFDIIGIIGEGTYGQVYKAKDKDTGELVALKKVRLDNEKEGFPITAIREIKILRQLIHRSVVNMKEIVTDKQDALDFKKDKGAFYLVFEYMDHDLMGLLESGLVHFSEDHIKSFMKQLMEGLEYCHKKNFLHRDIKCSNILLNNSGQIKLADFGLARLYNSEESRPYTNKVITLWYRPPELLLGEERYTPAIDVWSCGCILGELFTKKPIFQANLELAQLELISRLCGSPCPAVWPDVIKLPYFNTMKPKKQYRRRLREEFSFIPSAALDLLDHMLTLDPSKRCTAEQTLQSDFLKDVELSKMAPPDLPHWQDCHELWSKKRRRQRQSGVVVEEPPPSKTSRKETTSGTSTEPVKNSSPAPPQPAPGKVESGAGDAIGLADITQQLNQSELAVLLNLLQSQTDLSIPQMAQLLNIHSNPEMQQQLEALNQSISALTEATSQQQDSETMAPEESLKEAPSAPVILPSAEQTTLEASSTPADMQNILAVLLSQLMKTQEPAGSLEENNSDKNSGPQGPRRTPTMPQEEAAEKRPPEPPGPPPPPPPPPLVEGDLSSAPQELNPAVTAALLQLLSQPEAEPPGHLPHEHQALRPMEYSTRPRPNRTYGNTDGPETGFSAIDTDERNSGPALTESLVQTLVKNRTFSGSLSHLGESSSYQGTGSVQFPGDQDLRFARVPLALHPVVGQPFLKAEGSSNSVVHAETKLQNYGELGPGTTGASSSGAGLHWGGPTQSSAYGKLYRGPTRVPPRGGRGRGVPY
CDK12/Cyclin K, sequence (O75909 whole entry partner): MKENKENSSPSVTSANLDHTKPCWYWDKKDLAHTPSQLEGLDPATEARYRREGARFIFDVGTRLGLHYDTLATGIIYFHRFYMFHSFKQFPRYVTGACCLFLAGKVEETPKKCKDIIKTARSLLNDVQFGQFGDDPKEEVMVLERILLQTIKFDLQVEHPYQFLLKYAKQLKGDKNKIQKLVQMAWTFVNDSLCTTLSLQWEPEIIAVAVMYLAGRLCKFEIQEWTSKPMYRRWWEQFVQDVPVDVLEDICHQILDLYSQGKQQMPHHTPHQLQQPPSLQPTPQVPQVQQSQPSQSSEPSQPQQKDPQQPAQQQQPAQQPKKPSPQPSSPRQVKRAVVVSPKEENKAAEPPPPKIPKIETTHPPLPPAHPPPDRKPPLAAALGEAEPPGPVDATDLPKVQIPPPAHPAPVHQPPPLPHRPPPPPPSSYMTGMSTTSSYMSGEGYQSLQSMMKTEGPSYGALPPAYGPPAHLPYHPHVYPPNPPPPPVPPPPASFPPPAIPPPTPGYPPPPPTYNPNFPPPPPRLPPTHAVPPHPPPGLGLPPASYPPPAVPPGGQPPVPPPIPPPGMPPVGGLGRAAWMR
CDK11B/Cyclin L2, sequence (P21127 1-782 isoform P21127-2): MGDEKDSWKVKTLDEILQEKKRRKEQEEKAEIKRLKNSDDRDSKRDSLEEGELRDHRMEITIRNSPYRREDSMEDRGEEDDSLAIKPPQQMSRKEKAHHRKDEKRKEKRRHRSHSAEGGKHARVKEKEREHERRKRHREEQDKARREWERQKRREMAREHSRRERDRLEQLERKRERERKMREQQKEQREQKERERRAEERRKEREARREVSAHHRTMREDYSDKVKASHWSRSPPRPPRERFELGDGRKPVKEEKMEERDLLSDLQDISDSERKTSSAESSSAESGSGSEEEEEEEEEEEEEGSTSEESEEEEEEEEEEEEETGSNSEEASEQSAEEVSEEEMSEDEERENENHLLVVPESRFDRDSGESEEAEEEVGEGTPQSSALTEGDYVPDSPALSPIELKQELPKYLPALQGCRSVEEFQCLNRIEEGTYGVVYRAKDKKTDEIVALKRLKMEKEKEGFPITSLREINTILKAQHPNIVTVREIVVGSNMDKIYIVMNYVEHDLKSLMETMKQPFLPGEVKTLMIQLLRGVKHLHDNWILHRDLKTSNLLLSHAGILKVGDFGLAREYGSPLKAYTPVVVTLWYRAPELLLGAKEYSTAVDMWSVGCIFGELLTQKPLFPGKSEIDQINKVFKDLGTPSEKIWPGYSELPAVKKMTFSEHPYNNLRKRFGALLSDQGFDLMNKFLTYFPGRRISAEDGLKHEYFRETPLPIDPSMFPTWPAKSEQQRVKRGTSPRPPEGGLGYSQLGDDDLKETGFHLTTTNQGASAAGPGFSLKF
CDK4/Cyclin D1, sequence (P11802 whole entry): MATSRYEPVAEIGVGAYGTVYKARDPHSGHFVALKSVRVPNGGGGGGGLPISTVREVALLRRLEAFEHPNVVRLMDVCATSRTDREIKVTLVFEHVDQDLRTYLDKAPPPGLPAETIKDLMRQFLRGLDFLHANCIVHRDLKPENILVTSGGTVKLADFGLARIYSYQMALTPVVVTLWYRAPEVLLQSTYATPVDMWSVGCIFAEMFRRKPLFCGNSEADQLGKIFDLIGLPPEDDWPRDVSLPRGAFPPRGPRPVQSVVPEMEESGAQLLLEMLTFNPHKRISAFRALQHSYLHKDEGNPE
CDK4/Cyclin D1, sequence (P24385 whole entry partner): as the sequence (P24385 whole entry partner) above

**Q.** How did the inhibition at 10 µM (CDK1/Cyclin E1; [1]) turn out when Cc1ncc(-c2ccnc(Nc3ccc(S(C)(=O)=O)cc3)n2)n1C(C)C [AZD5438] was run?
**A.** 78.5%

**Q.** And the inhibition at 10 µM (CDK1/Cyclin E1; [2])?
**A.** 78.7%

**Q.** What about the inhibition at 10 µM (CDK1/Cyclin E1; [3]) of the same compound?
**A.** 78.3%

**Q.** And the inhibition at 10 µM (CDK4/Cyclin D1; [1])?
**A.** 89.9%

**Q.** And the inhibition at 10 µM (CDK4/Cyclin D1; [2])?
**A.** 88.9%

**Q.** What about the inhibition at 10 µM (CDK4/Cyclin D1; [3]) of the same compound?
**A.** 90.9%

**Q.** What about the inhibition at 10 µM (CDK5/CDK5R1; [1]) of the same compound?
**A.** 90.8%

**Q.** And the inhibition at 10 µM (CDK5/CDK5R1; [2])?
**A.** 87.9%

**Q.** And the inhibition at 10 µM (CDK5/CDK5R1; [3])?
**A.** 93.8%

**Q.** And the inhibition at 10 µM (CDK6/Cyclin D1; [1])?
**A.** 91.2%

**Q.** What about the inhibition at 10 µM (CDK6/Cyclin D1; [2]) of the same compound?
**A.** 90.8%

**Q.** What about the inhibition at 10 µM (CDK6/Cyclin D1; [3]) of the same compound?
**A.** 91.7%

**Q.** And the inhibition at 10 µM (CDK7; [1])?
**A.** 77.1%

**Q.** What about the inhibition at 10 µM (CDK7; [2]) of the same compound?
**A.** 71.7%

**Q.** What about the inhibition at 10 µM (CDK7; [3]) of the same compound?
**A.** 82.5%

**Q.** What about the inhibition at 10 µM (CDK8/Cyclin C; [1]) of the same compound?
**A.** 90.5%

**Q.** And the inhibition at 10 µM (CDK8/Cyclin C; [2])?
**A.** 94.1%

**Q.** What about the IC50 (CDK8/Cyclin C; [4]) of the same compound?
**A.** 200 nM

**Q.** What about the IC50 (CDK8/Cyclin C; [5]) of the same compound?
**A.** 330 nM

**Q.** And the IC50 (CDK8/Cyclin C; [6])?
**A.** 79 nM

**Q.** What about the inhibition at 10 µM (CDK11A/Cyclin L2; [1]) of the same compound?
**A.** 68.9%

**Q.** What about the inhibition at 10 µM (CDK11A/Cyclin L2; [2]) of the same compound?
**A.** 67.5%

**Q.** And the inhibition at 10 µM (CDK11A/Cyclin L2; [3])?
**A.** 70.3%

**Q.** And the inhibition at 10 µM (CDK11B/Cyclin L2; [1])?
**A.** 70.1%

**Q.** What about the inhibition at 10 µM (CDK11B/Cyclin L2; [2]) of the same compound?
**A.** 70.5%

**Q.** And the inhibition at 10 µM (CDK11B/Cyclin L2; [3])?
**A.** 69.7%

**Q.** What about the inhibition at 10 µM (CDK12/Cyclin K; [1]) of the same compound?
**A.** 17.1%

**Q.** And the inhibition at 10 µM (CDK12/Cyclin K; [2])?
**A.** 15.7%

**Q.** And the inhibition at 10 µM (CDK12/Cyclin K; [3])?
**A.** 18.5%

**Q.** And the inhibition at 10 µM (CDK13/Cyclin K; [1])?
**A.** 15.8%

**Q.** What about the inhibition at 10 µM (CDK13/Cyclin K; [2]) of the same compound?
**A.** 21.6%

**Q.** And the inhibition at 10 µM (CDK13/Cyclin K; [3])?
**A.** 10.1%

**Q.** What about the inhibition at 10 µM (CDK15/Cyclin Y; [1]) of the same compound?
**A.** 72.1%

**Q.** And the inhibition at 10 µM (CDK15/Cyclin Y; [2])?
**A.** 69.4%

**Q.** And the inhibition at 10 µM (CDK15/Cyclin Y; [3])?
**A.** 74.8%

**Q.** What about the inhibition at 10 µM (CDK16/Cyclin Y; [2]) of the same compound?
**A.** 90%

**Q.** What about the inhibition at 10 µM (CDK16/Cyclin Y; [3]) of the same compound?
**A.** 89.6%

**Q.** And the inhibition at 10 µM (CDK17/Cyclin Y; [1])?
**A.** 90.7%

**Q.** And the inhibition at 10 µM (CDK17/Cyclin Y; [2])?
**A.** 91.3%

**Q.** And the inhibition at 10 µM (CDK17/Cyclin Y; [3])?
**A.** 90.1%

**Q.** And the inhibition at 10 µM (CDK18/Cyclin Y; [1])?
**A.** 90%

**Q.** And the inhibition at 10 µM (CDK18/Cyclin Y; [2])?
**A.** 84.4%

**Q.** And the inhibition at 10 µM (CDK18/Cyclin Y; [3])?
**A.** 95.5%

**Q.** What about the IC50 (CDK18/Cyclin Y; [4]) of the same compound?
**A.** 670 nM

**Q.** And the IC50 (CDK18/Cyclin Y; [5])?
**A.** 566 nM

**Q.** And the IC50 (CDK18/Cyclin Y; [6])?
**A.** 770 nM

**Q.** What about the inhibition at 10 µM (CDK20/Cyclin H; [2]) of the same compound?
**A.** 22.8%

**Q.** And the inhibition at 10 µM (CDK20/Cyclin H; [3])?
**A.** 25.6%

**Q.** What about the IC50 (CDK19/Cyclin C; IC50 (nM) Average*, CDK19/Y, n=3 average ± SEM, n=2 average to 2 significant figures) of the same compound?
**A.** 300 nM

**Q.** And the IC50 (CDK19/Cyclin C; IC50 (nM) Replicate 1, CDK19/C)?
**A.** 470 nM

**Q.** And the IC50 (CDK19/Cyclin C; IC50 (nM) Replicate 2, CDK19/C)?
**A.** 140 nM

**Q.** What about the inhibition at 10 µM (CDK19/Cyclin C; read-out: Inhibition at 10µM (%) Average, CDK19/C, average of replicates) of the same compound?
**A.** 92.8%

**Q.** What about the inhibition at 10 µM (CDK19/Cyclin C; read-out: Inhibition at 10µM (%) Replicate 1, CDK19/C) of the same compound?
**A.** 90.6%

**Q.** What about the inhibition at 10 µM (CDK19/Cyclin C; read-out: Inhibition at 10µM (%) Replicate 2, CDK19/C) of the same compound?
**A.** 95.1%
